The text below walks through data of ChEMBL document CHEMBL1123701, “Synthesis and quantitative structure-activity relationship analysis of N-triiodoallyl- and N-iodopropargylazoles. New antifungal agents” (1987).

Values after ≈ are worked out from the molar mass of the structure shown.

The subject of one assay is Aspergillus fumigatus. The experiment in a line: Antifungal activity against Aspergillus fumigatus Saito strain. The assay is classed as functional.
The next assay has as its system Candida albicans. As to the kind of experiment: Antifungal activity against Candida albicans C-A-24 strain. The assay is classed as functional.
The next assay has as its system Cryptococcus neoformans. The experiment in a line: Antifungal activity against Cryptococcus neoformans Cr-1 strain. The assay is classed as functional.
The subject of assay [1] is Trichophyton interdigitale. As to the kind of experiment: Antifungal activity towards Trichophyton interdigitale. The assay is classed as functional.
The next assay deals with Trichophyton benhamiae. As to the kind of experiment: Antifungal activity towards Trichophyton mentagrophytes 530324 strain. In kind it is functional, Arthroderma benhamiae.

As for `CCCCCCCc1nnnn1CC#CI`, the MIC (usually the lowest concentration that inhibits growth of the organism) in the assay with Aspergillus fumigatus stood at 0.78 µg/mL (≈ 2.35 µM); against Candida albicans, 6.25 µg/mL (≈ 18.8 µM); in the assay with Cryptococcus neoformans it was 1.56 µg/mL (≈ 4.7 µM); in assay [1] it was 0.1 µg/mL (≈ 0.301 µM); against Trichophyton benhamiae, 0.2 µg/mL (≈ 0.602 µM).
The like results for `O=[N+]([O-])c1cccn1CC(I)=C(I)I` were, in that order, 0.39 µg/mL (≈ 0.736 µM), 0.39 µg/mL (≈ 0.736 µM), 6.25 µg/mL (≈ 11.8 µM), 0.1 µg/mL (≈ 0.189 µM) and 0.2 µg/mL (≈ 0.377 µM).
Regarding `CC(C)c1nnnn1CC#CI`, the MIC with Aspergillus fumigatus was found to be 6.25 µg/mL (≈ 22.6 µM); against Candida albicans, 12.5 µg/mL (≈ 45.3 µM); against Cryptococcus neoformans, 25 µg/mL (≈ 90.6 µM); in assay [1], 1.56 µg/mL (≈ 5.65 µM); with Trichophyton benhamiae it was 3.13 µg/mL (≈ 11.3 µM).
Take `O=[N+]([O-])c1cn(CC#CI)c(Cl)c1Cl`: the MIC in the assay with Aspergillus fumigatus came to 0.39 µg/mL (≈ 1.13 µM); against Candida albicans, 0.78 µg/mL (≈ 2.26 µM); against Cryptococcus neoformans, 1.56 µg/mL (≈ 4.52 µM); in assay [1], 0.39 µg/mL (≈ 1.13 µM); in the assay with Trichophyton benhamiae, 0.1 µg/mL (≈ 0.29 µM).
As for `Cc1ccc(-c2nnn(CC(I)=C(I)I)n2)cc1`, the minimal inhibitory concentration (MIC) (in the assay on Aspergillus fumigatus; against Candida albicans; against Cryptococcus neoformans; in assay [1]; with Trichophyton benhamiae) was over 100 µg/mL throughout.
